For assay [1], the system named is male SD rats. Put plainly: Effects on amount of urinary phosphorus in normal rats. It counts as in vivo. To be noted: 0.5 g in feed (20 g/rat/day) containing 0.58% phosphorus, 5 days, vs control, FIG. 2. On the procedure:
Effects on Amount of Blood and Urinary Phosphorus in Normal Rats
Using male SD rats (aged 8 weeks), the experiments on suppressive effects for the increase of urinary phosphorus amount in the weakly basic anion exchange resin (Ionac A-365; Sybron Chemicals Co.) or calcium carbonate were carried out as follows.
Namely, after the rats were given with feed (20 g/rat/day) containing 0.3% phosphorus for 7 days, feed (20 g/rat/day) containing 0.58% phosphorus was mixed with 0.5 g of Ionac A-365 or calcium carbonate and the mix feed was further administered to the rats for 5 days. Further, urine was collected for 24 hours before the drug administration and 5 days after the drug administration, and the amount of urinary phosphorus was calculated based on the urinary phosphorus concentration and the amount of urine. The urinary phosphorus concentration was measured by an inorganic phosphorus measurement reagent (P Test Wako). The increased amount of urinary phosphorus excretion was calculated based on the obtained difference of urinary phosphorus amount between before drug administration and 5 days after the drug administration, and compared with that of the non-administration group (control). As for rats in each group, 6 rats in each were subjected to the experiments.

For assay [2], the system named is rats with ⅚ nephrectomy. Description: Effects on blood phosphorus concentration and renal function in rats with 5/6 nephrectomy. It counts as in vivo, rat. To be noted: 0.3 g in 15 g of feed, 12 weeks after nephrectomy, vs control. On the procedure:
Effects on Blood Phosphorus Concentration and Renal Function in Rats With ⅚ Nephrectomy
Using male SD rats (aged 9 weeks), the experiments on the effects for the lowering action of urinary phosphorus amount and the renal function in the weakly basic anion exchange resin (Ionac A-365; Sybron Chemicals. Co.) or calcium carbonate were carried out as follows.
Namely, ⅔ of the left kidney was removed, after 1 week the right kidney being totally removed to make rats with ⅚ nephrectomy. After 1 week, a mixed feed administration of calcium carbonate or Ionac A-365 started. As a powder feed for rat MF manufactured by Oriental Yeast was used, and the administration dose was made 0.3 g content in 15 g of the feed. 12 weeks after the preparation of rats with ⅚ nephrectomy, blood was collected from the caudal vein, and the blood phosphorus concentration was measured by an inorganic phosphorus measurement reagent (P Test Wako). Also, urine was collected for 24 hours before the nephrectomy and 12 weeks after the nephrectomy, and the urinary protein concentration being measured by a protein measurement reagent (Protein Assay Kit, Bio-lad). As for rats in each group, 9 rats in each were subjected to the experiments.

On to `O=C([O-])[O-].[Ca+2]` [calcium carbonate], for which the “increase of urinary phosphorus excretion” value in assay [1] is “significantly suppressed compared with that of control”. Further, the blood phosphorus concentration result in assay [2] (FIG. 3) is “no significant difference in blood phosphorus concentration compared with control”. For the same compound, the “increase of urinary protein excretion amount” value in assay [2] (FIG. 4) is “significantly suppressed compared with control”.

Source of the values: US7087223B2, “Preventives and/or remedies for hyperphosphatemia” (Hisamitsu Pharmaceutical Co., Inc., priority 2000, dated 2006).
